Laboratory results published in US10011818B2, “Method for in vitro oocyte maturation” (CHINA AGRICULTURE UNIVERSITY, priority 2012, dated 2018).
Where two headings read alike, the source gives them in different places.

Experiments:
[1] = test system: oocyte nuclear maturation; conditions: cited from earlier work
[2] = test system: bovine oocytes; experiment: Effect of CNP pretreatment (pre-IVM) on meiotic resumption of bovine oocytes, nuclear morphology by DAPI staining; type: cell-based; conditions: for No. of GV oocytes / No. of GVBD oocytes / GV oocytes (%) / GVBD oocytes (%): pre-IVM 6 hours; for GV oocytes (%) / GVBD oocytes (%): mean ± SEM
Procedure: (§1) Bovine ovaries were obtained from a local slaughterhouse, transported at 30-35° C. to the laboratory within 1 hour, and washed in warmed normal saline containing 2% Penicillin G-Streptomycin. Ovarian antral follicles (3-8 mm) were aspirated using an 18-gauge needle. cumulus-oocyte complexes (COCs) with homogenous oocyte cytoplasm and complete, compacted, and multilayered CCs (Grade-1) or complete but fewer than three layers of CCs (Grade-2), were collected using micropipettes.
(§2) Grade-1 and -2 COCs were washed in the washing buffer (HEPES-TCM199) for three times, and then washed in pre-IVM medium (TCM199 containing 3 mg/ml BSA and CNP at different concentrations (50, 100, 200 and 400 nM) for two times. After that, COCs were transfer into pre-IVM medium (pre-warmed for 2 hours) in 4-well plate (500 μl pre-IVM medium and 50 COCs in each well) and cultured for 6 hours at 38.5° C., in humidified air with 5% CO2. After pre-IVM phase, a proportion of COCs are digested with hyaluronidase to remove cumulus cells. To determine the most preferable concentration of CNP for pre-VIM, meiosis kinetics of oocytes was evaluated according to nuclear morphology using DAPI staining under a fluorescence microscope. The oocytes without pre-IVM phase are used as control.

[3] = test system: bovine oocytes; experiment: Effect of CNP pre-IVM and extended IVM on developmental rate of bovine oocytes after IVF (cleavage, blastocyst); type: cell-based; conditions: for No. of cleavage / cleavage (%) / No. of blastocysts / blastocysts (%): CNP 200 nM pre-IVM 6 h; for No. of cleavage: day 2; for cleavage (%): day 2, mean ± SEM; for No. of blastocysts: day 7; for blastocysts (%): day 7, mean ± SEM
Procedure: as §1, §2
After cultured in pre-IVM medium containing 200 nM CNP, COCs are further cultured in extended-IVM medium (TCM199 supplemented with 10 μg/ml FSH, […], 1 μg/ml E2, 10 ng/ml EGF, 10% FBS) at 38.5° C., in humidified air with 5% CO2. To determine the most preferable duration for extended-IVM, COCs were cultured for 24, 26 or 28 hours. In addition, COCs without pre-IVM phase, are also cultured in […] for 24, 26 or 28 hours as controls.
After maturation, the COCs were fertilized in BO medium for 8 hours at 39° C. under 5% CO2 in a humidified atmosphere. After fertilization, the presumptive zygotes were transferred to 100 μl CR1 culture medium droplets (15 zygotes in each droplets) at 39° C. in a humidified atmosphere. The culture medium was changed every 2 days during the culture period. The percentage cleavage and rates of subsequent embryo development to the blastocyst stage were recorded on day 2 and 7, respectively.

[4] = test system: bovine oocytes and subsequent preimplantation embryos
[5] = test system: oocyte meiotic arrest; conditions: mice, Zhang et al., 2010; cited from earlier work
[6] = test system: oocyte maturation and embryonic development; conditions: CNP pretreatment 100 nM alone, without extended IVM; cited from earlier work
[7] = literature, chemical meiotic inhibitors

Compound: CN(C)c1ncnc2nc[nH]c12 [6-DMAP]
- inhibitory effect on nuclear maturation [1, 7]: evident inhibitory effect

Compound: O=C1CCCO1 [butyrolactone]
- inhibitory effect on nuclear maturation [1, 7]: evident inhibitory effect

Compound: C[C@@H]1C[C@@H]([C@H](O)CC2CC(=O)NC(=O)C2)C(=O)[C@@H](C)C1 [cycloheximide]
- inhibitory effect on nuclear maturation [1, 7]: evident inhibitory effect

Compound: CC[C@H](CO)Nc1nc(NCc2ccccc2)c2ncn(C(C)C)c2n1 [roscovitine]
- inhibitory effect on nuclear maturation [1]: evident inhibitory effect

Compound: C-type natriuretic peptide [CNP]
- No. of GV oocytes ([2]; CNP 50 nM): 64
- No. of GVBD oocytes ([2]; CNP 50 nM): 37
- GV oocytes (%) ([2]; CNP 50 nM): 63.4 ± 3.1%
- GVBD oocytes (%) ([2]; CNP 50 nM): 21.3 ± 3.1%
- No. of GV oocytes ([2]; CNP 100 nM): 68
- No. of GVBD oocytes ([2]; CNP 100 nM): 30
- GV oocytes (%) ([2]; CNP 100 nM): 69.4 ± 2.6%
- GVBD oocytes (%) ([2]; CNP 100 nM): 30.6 ± 2.6%
- rate of oocytes maintaining at GV stage versus control ([2]; CNP 200 nM, P<0.01): significant higher
- No. of GV oocytes ([2]; CNP 200 nM): 79
- No. of GVBD oocytes ([2]; CNP 200 nM): 18
- GV oocytes (%) ([2]; CNP 200 nM): 81.4 ± 2.1%
- GVBD oocytes (%) ([2]; CNP 200 nM): 19.6 ± 2.1%
- No. of GV oocytes ([2]; CNP 400 nM): 79
- No. of GVBD oocytes ([2]; CNP 400 nM): 27
- GV oocytes (%) ([2]; CNP 400 nM): 74.5 ± 2.8%
- GVBD oocytes (%) ([2]; CNP 400 nM): 25.5 ± 2.8%
- inhibitory effect on meiotic resumption outside the range ([2]; concentration higher than 400 nM or lower than 100 nM): no evident inhibitory effect
- concentration of maximal inhibitory effect on meiotic resumption ([2]; dose-dependent pattern, bovine oocytes): 200 nM
- concentration range with significant inhibition of oocyte meiotic resumption ([2]; pre-IVM pretreatment, bovine oocytes): 100 to 400 nM
- No. of cleavage ([3]; extended-IVM 24 h, after IVF): 157
- cleavage (%) ([3]; extended-IVM 24 h, after IVF): 81.3 ± 2.7%
- No. of blastocysts ([3]; extended-IVM 24 h, after IVF): 53
- blastocysts (%) ([3]; extended-IVM 24 h, after IVF): 27.5 ± 1.3%
- No. of cleavage ([3]; extended-IVM 26 h, after IVF): 89
- cleavage (%) ([3]; extended-IVM 26 h, after IVF): 87.1 ± 0.75%
- No. of blastocysts ([3]; extended-IVM 26 h, after IVF): 62
- blastocysts (%) ([3]; extended-IVM 26 h, after IVF): 28.6 ± 0.7%
- No. of cleavage ([3]; extended-IVM 28 h, after IVF): 186
- cleavage (%) ([3]; extended-IVM 28 h, after IVF): 88.3 ± 3.0%
- No. of blastocysts ([3]; extended-IVM 28 h, after IVF): 80
- blastocysts (%) ([3]; extended-IVM 28 h, after IVF): 37.4 ± 2.5%
- blastocyst rates ([3]; CNP pre-IVM plus extended IVM (novel method)): significantly enhances blastocyst rates
- cleavage rates versus counterparts without CNP pre-IVM ([3]; CNP pre-treatment followed by extended IVM phase, after IVF): significantly higher
- adverse effect on bovine oocytes and subsequent preimplantation embryos [4]: doesn't show any evident adverse effect
- preferable concentration of CNP for meiotic inhibition [5]: 100 nM
- oocyte maturation and embryonic development result [6]: could not lead to an evidently satisfying results
